The values that follow come from patent US11014964B2, “Peptide amide compound and preparation method and medical use thereof” (Sichuan Haisco Pharmaceutical Co., Ltd., priority 2017, dated 2021).

One data set concerns the target T1, human κ-opioid receptor (Homo sapiens, UniProt P41145).
T1 construct: host or cells: OPRK1 cells (DiscoveRx)
In words: Agonist activity on human κ-opioid receptors (inhibition of forskolin-stimulated cAMP release, TR-FRET). The format is cell-based. Particulars: OPRK1 cells (DiscoveRx). An excerpt: Test 1: Agonist Activity on Human κ-Opioid Receptors
Forskolin can stimulate the release of cAMP from a human κ-opioid receptor-overexpressing cell line, OPRK1 cells (DiscoveRx), and κ-opioid receptor agonists can inhibit the cAMP release stimulated by forskolin. By detecting the inhibitory effect of the test compound on the cAMP release stimulated by forskolin, the agonistic activity of the compound on the human κ-opioid receptor can be determined. First, a certain concentration of forskolin and different concentrations of the test compound were incubated with human κ-opioid receptor overexpressing cell lines. A cAMP immunoassay (LANCE®, PerkinElmer) based on time-resolved fluorescence resonance energy transfer (TR-FRET) was used to determine cAMP levels in the stimulated OPRK1 cells. The specific method is as follows:
OPRK1 cells (DiscoveRx) that highly express human κ-opioid receptors were cultured in McCoy's 5A (Gibco 16600-082) medium containing 10% FBS (Gibco 10099-141). On the day of the experiment, the cells in the exponential growth phase were washed and separated with PBS/5 mM EDTA, collected by centrifugation, resuspended with Stimulation Buffer and counted. The concentration of cells was adjusted to 3*10^5 cells/ml. DMSO was used to dissolve Forskolin and the test compound respectively, so that the mother liquor concentration each was 10 mM, and then diluted Forskolin to […] with Stimulation Buffer, and different concentrations of the test compound (the concentrations were 80, 16, 3.2, 0.64, 0.128, 0.0256, 0.00512, 0.001024, 0 μM) was added, 5 μl per well was added to a 384-well plate. 5 μl of cell suspension was added to each well and incubated at room temperature for 30 min. Subsequently, 5 μl of 4×Eu-cAMP tracer working solution (50-fold dilution of Eu-cAMP stock solution with cAMP Detection Buffer) and 5 μl of 4×Ulight-anti-cAMP working solution (150-fold dilution of ULight-anti-cAMP stock solution with cAMP Detection Buffer) were added to each well, and incubated at room temperature for 1 hour. 384-well plates were assayed for cAMP levels using a microplate reader (Perkin Elmer, Envision) TR-FRET method. The obtained data were processed and fitted to EC50 using the origin 7.5 software. The human κ-opioid receptor agonistic activity of the compound of the present invention was measured through the above experiments, and the measured EC50 values are shown in Table 1.
Stimulation Buffer preparation method: 14 mL 1*HBSS (invitrogen, cat. #14025-092), 75 μL 1 M HEPES (Invitrogen, cat. #15630-080), 30 μL 250 mM IBMX was dissolved in DMSO (Sigma, cat. #17018) and mixed with 200 μL 7.5% BSA Stabilizer. pH of the solution was adjusted to 7.4 with 0.1 N NaOH and make up to 15 mL with 1*HBSS.

A short description of another data set: Rat PK test. In kind it is in vivo. As to conditions: male SD rats, iv, 1 mg/kg (calculated in free form).
The next data set in a line: Mouse PK test. As to conditions: plasma, male ICR mice, iv, 1 mg/kg (calculated in free form). The format is in vivo.

T1 sequence (P41145 whole entry): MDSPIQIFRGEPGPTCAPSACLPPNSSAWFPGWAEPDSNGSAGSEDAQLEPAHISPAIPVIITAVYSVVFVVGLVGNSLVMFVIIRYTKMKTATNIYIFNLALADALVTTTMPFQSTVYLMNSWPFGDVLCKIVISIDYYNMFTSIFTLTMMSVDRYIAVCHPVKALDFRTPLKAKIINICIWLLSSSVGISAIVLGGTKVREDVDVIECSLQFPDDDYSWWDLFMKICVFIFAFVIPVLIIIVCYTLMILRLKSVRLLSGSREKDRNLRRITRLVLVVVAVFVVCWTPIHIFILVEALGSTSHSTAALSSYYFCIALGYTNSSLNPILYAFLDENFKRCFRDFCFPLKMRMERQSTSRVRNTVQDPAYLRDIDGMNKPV

One may read the EC50 as the concentration giving half of the maximal effect. A low value points to a more potent agent. At human κ-opioid receptor, `CC(=O)N1CCC2(C1)CN(C(=O)[C@@H](CCCCN)NC(=O)[C@@H](CC(C)C)NC(=O)[C@@H](Cc1ccccc1)NC(=O)[C@H](N)Cc1ccccc1)C2` [Compound 30, (2R)—N-[(1R)-1-(7-acetyl-2,7-diazaspiro[3.4]octane-2-carbonyl)-5-amino-pentyl]-2-[[(2R)-2-[[(2R)-2-amino-3-phenyl-propanoyl]amino]-3-phenyl-propanoyl]amino]-4-methyl-pentanamide; di-trifluoroacetic acid] had an EC50 of 0.071 nM.
With `CC(C)C[C@@H](NC(=O)[C@@H](Cc1ccccc1)NC(=O)[C@H](N)Cc1ccccc1)C(=O)N[C@H](CCCCN)C(=O)N1CC2(CCN(C3COC3)CC2)C1` [Compound 33, (2R)—N-[(1R)-5-amino-1-[7-(oxetan-3-yl)-2,7-diazaspiro[3.5]nonane-2-carbonyl]pentyl]-2-[[(2R)-2-[[(2R)-2-amino-3-phenyl-propanoyl]amino]-3-phenyl-propanoyl]amino]-4-methyl-pentanamide; tri-trifluoroacetic acid], a half-maximal effect at human κ-opioid receptor (EC50) was put at 0.05 nM.
Consider `CC(=O)N1CCC2(CCN(C(=O)[C@@H](CCCCN)NC(=O)[C@@H](CC(C)C)NC(=O)[C@@H](Cc3ccccc3)NC(=O)[C@H](N)Cc3ccccc3)C2)C1` (stereo partly drawn) [Compound 31, (2R)—N-[(1R)-1-(7-acetyl-2,7-diazaspiro[4.4]nonane-2-carbonyl)-5-amino-pentyl]-2-[[(2R)-2-[[(2R)-2-amino-3-phenyl-propanoyl]amino]-3-phenyl-propanoyl]amino]-4-methyl-pentanamide; di-trifluoroacetic acid], for which, at human κ-opioid receptor, a half-maximal response (EC50) required 0.0136 nM.
The same measure, in the same setting: the same measure for `CC(C)C[C@@H](NC(=O)[C@@H](Cc1ccccc1)NC(=O)[C@H](N)Cc1ccccc1)C(=O)N[C@H](CCCCN)C(=O)N1CC2(CCN(S(C)(=O)=O)CC2)C1` [Compound 12, (2R)—N-[(1R)-5-amino-1-(7-methylsulfonyl-2,7-diazaspiro[3.5]nonane-2-carbonyl)pentyl]-2-[[(2R)-2-[[(2R)-2-amino-3-phenyl-propanoyl]amino]-3-phenyl-propanoyl]amino]-4-methyl-pentanamide; di-trifluoroacetic acid]: 0.067 nM; for `CC(C)C[C@@H](NC(=O)[C@@H](Cc1ccccc1)NC(=O)[C@H](N)Cc1ccccc1)C(=O)N[C@H](CCCCN)C(=O)N1CC2(CCN(C(=O)[C@@H](C)N)CC2(F)F)C1` [Compound 19, (2R)—N-[(1R)-5-amino-1-[7-[(2R)-2-aminopropanoyl]-5,5-difluoro-2,7-diazaspiro[3.5]nonane-2-carbonyl]pentyl]-2-[[(2R)-2-[[(2R)-2-amino-3-phenyl-propanoyl]amino]-3-phenyl-propanoyl]amino]-4-methyl-pentanamide; tri-trifluoroacetic acid]: 0.044 nM.
Still for that read-out and setting: in the case of `CC(C)C[C@@H](NC(=O)[C@@H](Cc1ccccc1)NC(=O)[C@H](N)Cc1ccccc1)C(=O)N[C@H](CCCCN)C(=O)N1CC2(CCN(C(=O)[C@@H](C)N)CC2)C1` [Compound 18, (2R)—N-[(1R)-5-amino-1-[7-[(2R)-2-aminopropanoyl]-2,7-diazaspiro[3.5]nonane-2-carbonyl]pentyl]-2-[[(2R)-2-[[(2R)-2-amino-3-phenyl-propanoyl]amino]-3-phenyl-propanoyl]amino]-4-methyl-pentanamide; tri-trifluoroacetic acid] it was 0.04 nM.
In general, AUC(0-t) refers to the area under the concentration-time curve up to a stated or last time point. Usually half-life stands for the time needed for the level to fall by half in the phase considered. On to `CC(C)C[C@@H](NC(=O)[C@@H](Cc1ccccc1)NC(=O)[C@H](N)Cc1ccccc1)C(=O)N[C@H](CCCCN)C(=O)N1CCC(N)(C(=O)O)CC1` [CR-845], for which the Cl in the data set “Rat PK test” is 8.29 ml/kgmin. Moreover, in the data set “Rat PK test” (rat, plasma), the AUC(0-t) was 1960 ng·h/mL and the half-life was 3.9 h. Also, in the data set “Rat PK test” (rat, plasma, read-out: Vdss), the Vd is 1.56 L/kg. In addition, in “Mouse PK test”, the exposure AUC(0-t) was 1120 ng·h/mL and the half-life is 0.388 h.
In turn, `CC(C)C[C@@H](NC(=O)[C@@H](Cc1ccccc1)NC(=O)[C@H](N)Cc1ccccc1)C(=O)N[C@H](CCCCN)C(=O)N1CCC2(CC1)CN(C(=O)[C@@H](C)N)C2` [Compound 17, (2R)—N-[(1R)-5-amino-1-[2-[(2R)-2-aminopropanoyl]-2,7-diazaspiro[3.5]nonane-7-carbonyl]pentyl]-2-[[(2R)-2-[[(2R)-2-amino-3-phenyl-propanoyl]amino]-3-phenyl-propanoyl]amino]-4-methyl-pentanamide; tri-trifluoroacetic acid] displayed an EC50 at human κ-opioid receptor of 0.00919 nM. In addition, in the data set “Mouse PK test”, the AUC(0-t) is 2240 ng·h/mL and the half-life was 3.88 h.
`CC(=O)N1CCC2(CC1)CN(C(=O)[C@@H](CCCCN)NC(=O)[C@@H](CC(C)C)NC(=O)[C@@H](Cc1ccccc1)NC(=O)[C@H](N)Cc1ccccc1)C2` [Compound 20, (2R)—N-[(1R)-1-(7-acetyl-2,7-diazaspiro[3.5]nonane-2-carbonyl)-5-amino-pentyl]-2-[[(2R)-2-[[(2R)-2-amino-3-phenyl-propanoyl]amino]-3-phenyl-propanoyl]amino]-4-methyl-pentanamide; di-trifluoroacetic acid]: at human κ-opioid receptor, the response was half-maximal at 0.086 nM (EC50).
On the same count and under the same terms, in the case of `CNC(=O)N1CCC2(CCN(C(=O)[C@@H](CCCCN)NC(=O)[C@@H](CC(C)C)NC(=O)[C@@H](Cc3ccccc3)NC(=O)[C@H](N)Cc3ccccc3)C2)C1` (stereo partly drawn) [Compound 22, 7-[(2R)-6-amino-2-[[(2R)-2-[[(2R)-2-[[(2R)-2-amino-3-phenyl-propanoyl]amino]-3-phenyl-propanoyl]amino]-4-methyl-pentanoyl]amino]hexanoyl]-N-methyl-2,7-diazaspiro[4.4]nonane-2-carboxamide; di-trifluoroacetic acid] it was 0.0112 nM; in that of `CC(C)C[C@@H](NC(=O)[C@@H](Cc1ccccc1)NC(=O)[C@H](N)Cc1ccccc1)C(=O)N[C@H](CCCCN)C(=O)N1CCC2(CC1)CN(C(=O)N1CC(S(C)(=O)=O)C1)C2` [Compound 14, (2R)—N-[(1R)-5-amino-1-[2-(3-methylsulfonylazetidine-1-carbonyl)-2,7-diazaspiro[3.5]nonane-7-carbonyl]pentyl]-2-[[(2R)-2-[[(2R)-2-amino-3-phenyl-propanoyl]amino]-3-phenyl-propanoyl]amino]-4-methyl-pentanamide; di-trifluoroacetic acid], 0.0155 nM.
Still for that read-out and setting: in the case of `CC(C)C[C@@H](NC(=O)[C@@H](Cc1ccccc1)NC(=O)[C@H](N)Cc1ccccc1)C(=O)N[C@H](CCCCN)C(=O)N1CCC2(CC1)CN(C(=O)N1CCCC1)C2` [Compound 13, (2R)-2-[[(2R)-2-[[(2R)-2-amino-3-phenyl-propanoyl]amino]-3-phenyl-propanoyl]amino]-N-[(1R)-5-amino-1-[2-(pyrrolidin-1-carbonyl)-2,7-diazaspiro[3.5]nonane-7-carbonyl]pentyl]-4-methyl-pentanamide; di-trifluoroacetic acid] it was 0.00682 nM.
At human κ-opioid receptor, `CC(C)C[C@@H](NC(=O)[C@@H](Cc1ccccc1)NC(=O)[C@H](N)Cc1ccccc1)C(=O)N[C@H](CCCCN)C(=O)N1CCC2(CC1)CC(N1CCCCC1)C2` [Compound 23, (2R)-2-[[(2R)-2-[[(2R)-2-amino-3-phenyl-propanoyl]amino]-3-phenyl-propanoyl]amino]-N-[(1R)-5-amino-1-[2-(1-piperidinyl)-7-azaspiro[3.5]nonane-7-carbonyl]pentyl]-4-methyl-pentanamide; tri-trifluoroacetic acid] showed a concentration for a half-maximal effect (EC50) of 0.023 nM.
